# Assay results from patent US7989649B2, “Tumor imaging compounds” (Emory University, priority 2002, dated 2011).
# Test system: 9 L gliosarcoma cells
# Assay: Amino acid uptake inhibition assay in 9 L gliosarcoma cells
# Format: cell-based, rat
# Settings: for uptake of activity blocked by BCH relative to controls: BCH 10 mM; for uptake of activity blocked by BCH relative to controls / uptake of activity blocked by N-MeAIB relative to controls: 30 minutes, 9 L gliosarcoma cells; for uptake of activity blocked by N-MeAIB relative to controls: N-MeAIB 10 mM; for intracellular accumulation in 9 L gliosarcoma cells: absence of inhibitors, 30 minutes of incubation; for substrate for A-type amino acid transport system: based on inhibition of uptake by N-MeAIB
# Method: Amino acid uptake inhibition assays. The 9 L gliosarcoma cells were initially grown as monolayers in T-flasks containing Dulbecco's Modified Eagle's Medium (DMEM) under humidified incubator conditions (37° C., 5% CO2/95% air). The growth media was supplemented with 10% fetal calf serum and antibiotics (10,000 units/ml penicillin and 10 mg/ml streptomycin). The growth media was replaced three times per week, and the cells were passaged so the cells would reach confluency in a week's time.
# When the monolayers were confluent, cells were prepared for experimentation in the following manner. Growth media was removed from the T-flask, and the monolayer cells were exposed to 1× trypsin:EDTA for ˜1 minute to weaken the protein attachments between the cells and the flask. The flask was then slapped, causing the cells to release. Supplemented media was added to inhibit the proteolytic action of the trypsin, and the cells were aspirated through an 18 Ga needle until they were monodisperse. A sample of the cells was counted under a microscope using a hemocytometer, and the live/dead fraction estimated through trypan blue staining (>98% viability). The remainder of the cells was placed into a centrifuge tube, centrifuged at 75 G for 5 minutes, and the supernatant was removed. The cells were then resuspended in amino-acid/serum-free DMEM salts.
# In this study, approximately 4.55×10^5 cells were exposed to either [^18F]5a or [^18F]5b (5 μCi) in 3 ml of amino acid free media±transporter inhibitors (10 mM) for 30 minutes under incubator conditions in 12×75 mm glass vials. Each assay condition was performed in duplicate. After incubation, cells were twice centrifuged (75 G for 5 minutes) and rinsed with ice-cold amino-acid/serum-free DMEM salts to remove residual activity in the supernatant. The vials were placed in a Packard Cobra II Auto-Gamma counter, the raw counts decay corrected, and the activity per cell number determined. The data from these studies (expressed as percent uptake relative to control) were graphed using Excel, with statistical comparisons between the groups analyzed using a 1-way ANOVA (GraphPad Prism software package).
Compound,uptake of activity blocked by BCH relative to controls [%],uptake of activity blocked by N-MeAIB relative to controls [%],intracellular accumulation in 9 L gliosarcoma cells,substrate for non-A transport system (based on inhibition of uptake by BCH),substrate for A-type amino acid transport system,selectivity for A-type amino acid transport (compared with [18F]5a)
"CC(N)(CF)C(=O)O (racemic) [[^18F]5a, 2-amino-3-fluoro-2-methylpropanoic acid]",48,80,0.43 % of the initial dose per million cells,"substrate in vitro for at least one non-A transport system, possibly system L",substrates for the A-type amino acid transport system,–
"CNC(C)(CF)C(=O)O (racemic) [[^18F]5b, 3-fluoro-2-methyl-2-(methylamino)propanoic acid]",33,88,0.50 % of the initial dose per million cells,–,substrates for the A-type amino acid transport system,more selective substrate for the A-type amino transport system than [^18F]5a
